The values that follow come from US10752612B2, “PLK4 inhibitors” (LUDWIG INSTITUTE FOR CANCER RESEARCH LTD, priority 2015, dated 2020).

One may read the IC50 as the point on the concentration scale where inhibition reaches its midpoint.

A value given as a limit tells only on which side of the number the result lay.

The target of this experiment is T1, human Plk4 kinase domain (aa 2-275) (Homo sapiens, UniProt O00444).
T1 construct: purified 6×His-tagged human Plk4 kinase domain (aa 2-275); 6xHis; made in house; host or cells: E. coli
T1 sequence (O00444 2-275): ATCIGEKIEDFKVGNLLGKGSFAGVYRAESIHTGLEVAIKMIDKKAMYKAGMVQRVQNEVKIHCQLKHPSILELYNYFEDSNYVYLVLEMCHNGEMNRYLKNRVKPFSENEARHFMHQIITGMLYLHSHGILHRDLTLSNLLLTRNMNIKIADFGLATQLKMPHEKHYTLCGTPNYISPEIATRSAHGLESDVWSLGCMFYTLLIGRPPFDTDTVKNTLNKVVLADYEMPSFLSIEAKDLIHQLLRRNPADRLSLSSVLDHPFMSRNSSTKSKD
The experiment can be described thus: Plk4 kinase assay (ADP-Glo). In kind it is biochemical. The following applies: Table 1. Summed up:
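Enzyme at 2.5-10 nM final, pH 8.0, reacted 4-16 hours at 25° C; ADP generation read by ADP-Glo luminescence. Ki derived from IC50 by Cheng-Prusoff or, for tight binders, Copeland formalism.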
(In ADP-Glo the light output rises with the ADP produced.)
Consider `Cc1cc(Nc2cc(C)[nH]n2)nc(Sc2ccc(NC(=O)C3CC3)cc2)n1`, for which the IC50 was under 1 µM. As for `COCCN(C)c1nc(Sc2ccc(NC(=O)C3CC3)cc2)nc(Nc2cc(C)[nH]n2)c1C`, the figure is under 1 µM; as for `Cc1cc(Nc2nc(Sc3ccc(NC(=O)C4CC4)cc3)nc(-n3ccnc3)c2C)n[nH]1`, 0.1 to 1 µM.

The compound `CCc1cc(Nc2nc(Sc3ccc(NC(=O)C4CC4)cc3)nc(N3CCN(C)CC3)c2C)n[nH]1` registered an IC50 of over 1 µM. The result for `COc1c(Nc2cc(C)[nH]n2)nc(Sc2ccc(NC(=O)C3CC3)cc2)nc1N1CCOCC1` reads under 1 µM. As for `COc1c(Nc2cc(C)[nH]n2)nc(Sc2ccc(NC(=O)C3CC3)cc2)nc1N1CCNCC1`, the figure is under 1 µM; as for `COc1c(Nc2cc(C)[nH]n2)nc(Sc2ccc(NC(=O)C3CC3)cc2)nc1N(C)C(C)C`, 0.1 to 1 µM; as for `Cc1cc(Nc2nc(Sc3ccc(N)cc3)nc(N(C)C(C)C)c2C)n[nH]1`, under 1 µM.

`COCC(=O)N1CCN(c2nc(Sc3ccc(N)cc3)nc(Nc3cc(C)[nH]n3)c2C)CC1` showed an IC50 of under 1 µM. The result for `Cc1ccc(Sc2nc(Nc3cc(C)[nH]n3)c(C)c(N3CCC(O)CC3)n2)cc1` reads under 1 µM; that for `Cc1ccc(Sc2nc(Nc3cc(C)[nH]n3)c(C)c(N3CCOCC3)n2)cc1`, under 1 µM.

Regarding `COCC(=O)N1CCN(c2nc(Sc3ccc(C)cc3)nc(Nc3cc(C)[nH]n3)c2C)CC1`, the IC50 is under 1 µM. In turn, `COc1c(Nc2cc(C)[nH]n2)nc(Sc2ccc(S(=O)(=O)Cc3ccccc3)cc2)nc1N1CCN(CCN2CCCCC2)CC1` came in with an IC50 of under 1 µM. The result for `COc1c(Nc2cc(C)[nH]n2)nc(Sc2ccc(S(=O)(=O)Cc3ccccc3)cc2)nc1N1CCN(CCN2C(C)CCCC2C)CC1` (stereo not shown) reads under 1 µM. As for `COc1c(Nc2cc(C)[nH]n2)nc(Sc2ccc(S(=O)(=O)Cc3ccccc3)cc2)nc1N1CCN(CCN2CCC(O)CC2)CC1`, the figure is under 1 µM. The result for `CC(=O)Nc1ccc(Sc2nc(Nc3cc(C)[nH]n3)c(Cl)c(N3CCC(O)CC3)n2)cc1` reads under 1 µM; that for `CC(=O)Nc1ccc(Sc2nc(N3CCC(O)CC3)nc(Nc3cc(C)[nH]n3)c2Cl)cc1`, under 1 µM.

In turn, `CCN(c1nc(Sc2ccc(NC(C)=O)cc2)nc(Nc2cc(C)[nH]n2)c1C)C(C)C` gave an IC50 of under 1 µM.

Compound `CC(=O)Nc1ccc(Sc2nc(Nc3cc(C)[nH]n3)c(C)c(N(CCO)C(C)C)n2)cc1` gave an IC50 of under 1 µM. The compound `CC(=O)Nc1ccc(Sc2nc(Nc3cc(C)[nH]n3)c(C)c(N3CCN(CCN4CCCCC4)CC3)n2)cc1` showed an IC50 of under 1 µM. As for `CCOc1c(Nc2cc(C)[nH]n2)nc(Sc2ccc(NC(C)=O)cc2)nc1N1CCC(O)CC1`, the figure is under 1 µM; as for `Cc1ccc(Sc2nc(Nc3cc(C)[nH]n3)c(C)c(N(C)C(C)C)n2)cc1`, under 1 µM.

In turn, `COCC(=O)N1CCN(c2nc(SC)nc(Nc3cc(C)[nH]n3)c2C)CC1` gave an IC50 of under 1 µM. The result for `CCOc1c(Nc2cc(C)[nH]n2)nc(SC)nc1N1CCC(O)CC1` reads 0.1 to 1 µM; that for `CCOc1c(Nc2cc(C)[nH]n2)nc(SC)nc1N1CCCCC1`, 0.1 to 1 µM; that for `CCOc1c(Nc2cc(C)[nH]n2)nc(SC)nc1N1CCN(C)CC1`, 0.1 to 1 µM.

As for `CCOc1c(Nc2cc(C)[nH]n2)nc(SC)nc1N1CCN(CCN(C)C)CC1`, the IC50 lay in the range of 0.1 to 1 µM. As for `Cc1cc(Nc2nc(Sc3ccc(NC(=O)C4CC4)cc3)nc(N3CCC(O)CC3)c2C)n[nH]1`, the figure is under 1 µM.

`COc1c(Nc2cc(C)[nH]n2)nc(Sc2ccc(NC(=O)C3CC3)cc2)nc1N1CCC(O)CC1`: the IC50 was under 1 µM. As for `CC(=O)Nc1ccc(Sc2nc(Nc3cc(C)[nH]n3)c(C)c(N3C4CCC3CC(O)C4)n2)cc1` (stereo not shown), the IC50 was under 1 µM. `COc1c(Nc2cc(C)[nH]n2)nc(Sc2ccc(NC(C)=O)cc2)nc1N1C2CCC1CC(O)C2` (stereo not shown) gave an IC50 of under 1 µM.

`COc1c(Nc2cc(C)[nH]n2)nc(Sc2ccc(S(=O)(=O)Cc3ccccc3)cc2)nc1N1CCO[C@H](C)C1` registered an IC50 of under 1 µM.

Turning to `COc1c(Nc2cc(C)[nH]n2)nc(Sc2ccc(S(=O)(=O)Cc3ccccc3)cc2)nc1N1CCN(C2CCN(Cc3ccccc3)CC2)CC1`, the IC50 was under 1 µM. In turn, `COc1c(Nc2cc(C)[nH]n2)nc(Sc2ccc(S(=O)(=O)Cc3ccccc3)cc2)nc1N1CCO[C@@H](C)C1` returned an IC50 of under 1 µM. The result for `COc1c(Nc2cc(C)[nH]n2)nc(Sc2ccc(S(=O)(=O)Cc3ccccc3)cc2)nc1N1CC2CCC(C1)O2` reads under 1 µM; that for `COc1cccc(CS(=O)(=O)c2ccc(Sc3nc(Nc4cc(C)[nH]n4)c(OC)c(N4CCN(CCN(C)Cc5ccccc5)CC4)n3)cc2)c1`, under 1 µM; that for `COc1c(Nc2cc(C)[nH]n2)nc(Sc2ccc(S(=O)(=O)Cc3ccccc3C)cc2)nc1N1CCN(CCN(C)C)CC1`, under 1 µM. As for `COc1c(Nc2cc(C)[nH]n2)nc(Sc2ccc(S(=O)(=O)Cc3ccccc3)cc2)nc1N1CCOC[C@H]1C`, the figure is under 1 µM. As for `COc1c(Nc2cc(C)[nH]n2)nc(Sc2ccc(S(=O)(=O)Cc3ccccc3)cc2)nc1N1CCOC[C@@H]1C`, the figure is under 1 µM. As for `COc1c(Nc2cc(C)[nH]n2)nc(Sc2ccc(S(=O)(=O)Cc3cccc(F)c3)cc2)nc1N1CCN(CCN(C)C)CC1`, the IC50 was under 1 µM.

`COc1c(Nc2cc(C)[nH]n2)nc(Sc2ccc(S(=O)(=O)Cc3cccc([N+](=O)[O-])c3F)cc2)nc1N1CCN(CCN(C)C)CC1` showed an IC50 of under 1 µM. As for `COC(=O)c1cccc(CS(=O)(=O)c2ccc(Sc3nc(Nc4cc(C)[nH]n4)c(OC)c(N4CCN(CCN(C)C)CC4)n3)cc2)c1`, the figure is under 1 µM; as for `COc1c(Nc2cc(C)[nH]n2)nc(Sc2ccc(S(=O)(=O)Cc3cccc(C(N)=O)c3)cc2)nc1N1CCN(CCN(C)C)CC1`, under 1 µM; as for `COc1c(Nc2cc(C)[nH]n2)nc(Sc2ccc(S(=O)(=O)Cc3ccccc3)cc2)nc1N1CCN(CCN2CCC2)CC1`, under 1 µM. In the case of `COc1c(Nc2cc(C)[nH]n2)nc(Sc2ccc(S(=O)(=O)Cc3ccccc3NC(C)=O)cc2)nc1N1CCN(CCN(C)C)CC1`, the IC50 was under 1 µM. `COc1c(Nc2cc(C)[nH]n2)nc(Sc2ccc(S(=O)(=O)Cc3ccccc3C(F)(F)F)cc2)nc1N1CCN(CCN(C)C)CC1`: the IC50 is under 1 µM.

With `COc1c(Nc2cc(C)[nH]n2)nc(Sc2ccc(S(=O)(=O)Cc3ccccc3N(C)C)cc2)nc1N1CCN(CCN(C)C)CC1`, the IC50 is under 1 µM. The result for `COc1c(Nc2cc(C)[nH]n2)nc(Sc2ccc(S(=O)(=O)Cc3ccccc3-c3ccccc3)cc2)nc1N1CCN(CCN(C)C)CC1` reads under 1 µM; that for `COc1c(Nc2cc(C)[nH]n2)nc(Sc2ccc(S(=O)(=O)Cc3ccccc3C#N)cc2)nc1N1CCN(CCN(C)C)CC1`, under 1 µM; that for `COc1c(Nc2cc(C)[nH]n2)nc(Sc2ccc(S(=O)(=O)Cc3cccc(C(=O)N(C)C)c3)cc2)nc1N1CCN(CCN(C)C)CC1`, under 1 µM. The result for `COc1c(Nc2cc(C)[nH]n2)nc(Sc2ccc(S(=O)(=O)Cc3ccccc3C(N)=O)cc2)nc1N1CCN(CCN(C)C)CC1` reads under 1 µM; that for `COc1c(Nc2cc(C)[nH]n2)nc(Sc2ccc(S(=O)(=O)Cc3ccccc3)cc2)nc1N1CCC(CCC23CC4CCC(C2)N43)CC1` (stereo not shown), under 1 µM; that for `COc1c(Nc2cc(C)[nH]n2)nc(Sc2ccc(S(=O)(=O)Cc3cccc([N+](=O)[O-])c3)cc2)nc1N1CCOC[C@H]1C`, under 1 µM. The result for `COc1c(Nc2cc(C)[nH]n2)nc(Sc2ccc(S(=O)(=O)Cc3ccccc3)cc2)nc1N1CCN(C2CCNCC2)CC1` reads under 1 µM; that for `COc1c(Nc2cc(C)[nH]n2)nc(Sc2ccc(S(=O)(=O)Cc3ccccc3)cc2Cl)nc1N1CCN(CCN(C)C)CC1`, under 1 µM. On to `COc1c(Nc2cc(C)[nH]n2)nc(Sc2ccc(S(=O)(=O)Cc3cccc([N+](=O)[O-])c3)cc2)nc1N1CCO[C@H](C)C1`, for which the IC50 was under 1 µM. The result for `COc1c(Nc2cc(C)[nH]n2)nc(Sc2ccc(S(=O)(=O)Cc3cccc([N+](=O)[O-])c3)cc2)nc1N1CCO[C@@H](C)C1` reads under 1 µM; that for `COc1c(Nc2cc(C)[nH]n2)nc(Sc2ccc(S(=O)(=O)Cc3cccc(NC(C)=O)c3)cc2)nc1N1CCN(CCN(C)C)CC1`, under 1 µM; that for `COc1c(Nc2cc(C)[nH]n2)nc(Sc2ccc(S(=O)(=O)Cc3cccc(N(C)C)c3)cc2)nc1N1CCN(CCN(C)C)CC1`, under 1 µM. As for `COC(=O)c1ccccc1CS(=O)(=O)c1ccc(Sc2nc(Nc3cc(C)[nH]n3)c(OC)c(N3CCN(CCN(C)C)CC3)n2)cc1`, the figure is under 1 µM; as for `COc1c(Nc2cc(C)[nH]n2)nc(Sc2ccc(S(=O)(=O)Cc3ccccc3C(=O)N(C)C)cc2)nc1N1CCN(CCN(C)C)CC1`, under 1 µM. `COc1c(Nc2cc(C)[nH]n2)nc(Sc2ccc(S(=O)(=O)Cc3cccc(C(=O)O)c3)cc2)nc1N1CCN(CCN(C)C)CC1` gave an IC50 of under 1 µM. The result for `COc1c(Nc2cc(C)[nH]n2)nc(Sc2ccc(S(=O)(=O)Cc3ccccc3C(=O)O)cc2)nc1N1CCN(CCN(C)C)CC1` reads under 1 µM. `COc1ccc([N+](=O)[O-])cc1CS(=O)(=O)c1ccc(Sc2nc(Nc3cc(C)[nH]n3)c(OC)c(N3CCN(CCN(C)C)CC3)n2)cc1` gave an IC50 of under 1 µM. As for `COc1c(CS(=O)(=O)c2ccc(Sc3nc(Nc4cc(C)[nH]n4)c(OC)c(N4CCN(CCN(C)C)CC4)n3)cc2)cccc1[N+](=O)[O-]`, the figure is under 1 µM.

Consider `COc1c(Nc2cc(C)[nH]n2)nc(Sc2ccc(S(=O)(=O)Cc3cc([N+](=O)[O-])ccc3F)cc2)nc1N1CCN(CCN(C)C)CC1`, for which the IC50 was under 1 µM. The result for `COc1c(Nc2cc(C)[nH]n2)nc(Sc2ccc(S(=O)(=O)Cc3cccc([N+](=O)[O-])c3)cc2F)nc1N1CCN(CCN(C)C)CC1` reads under 1 µM.
